# Key:
# [1] = test system: siPPP2R1A 231MFP cells; test: Proliferation of siPPP2R1A knockdown 231MFP cells; format: cell-based; settings: 48 h after 48 h siRNA transfection
# Text: PPP2R1A was transiently knocked down with siRNA using previously described methods (Benjamin et al., 2014). siRNA for a scrambled RNA oligonucleotide control and pooled RNA oligonucleotides targeting PPP2R1A were purchased from Dharmacon.
# [2] = molecular target: T1, pure human PPP2R1A protein (Homo sapiens, UniProt P30153); test: Gel-based ABPP, competition against IAyne labeling; format: binding; settings: for IC50: 30 min at 37° C. pre-treatment, IAyne labeling; for competition against IAyne labeling of pure human PPP2R1A: 30 min pre-incubation
# T1 construct: purchased Origene
# Description: Gel-based ABPP methods were performed using the methods described in “Chem Biol 22(10), 1394-1405 (2015)” by Medina-Cleghorn D., et al. Recombinant pure human proteins were purchased from Origene. Pure proteins were pre-treated with DMSO, Withaferin A, or acrylamide or chloroacetamide compounds (e.g., DKM 2-90 or JNS 1-40) for 30 minutes at 37° C. in an incubation volume of PBS (50 μL), and were subsequently treated with IAyne (10 μM final concentration) for 30 minutes at room temperature. CuAAC was performed to append rhodamine-azide onto IAyne probe-labeled proteins. The samples were separated by SDS/PAGE and scanned using a ChemiDoc MP. Inhibition of target labeling was assessed by densitometry using ImageStudio Light software.
# [3] = molecular target: T2, C377 of PPP2R1A (Homo sapiens, UniProt P30153); test: Competitive isoTOP-ABPP in 231MFP proteomes in vitro; format: binding
# T2 construct: pre-incubating withaferin A (10 μM) for 30 min in 231MFP breast cancer cell proteomes; endogenous in cells; host or cells: 231MFP breast cancer cells (MDA-MB-231 derived)
# Description: IsoTOP-ABPP studies were performed using the methods described in “Nature 534(7608), 570-574 (2016)” by Backus K. M., et al. and “Nature 468(7325), 790-795 (2010)” by Weerapana E., et al. Proteome samples diluted in PBS were treated with Withaferin A or vehicle for 30 minutes at 37° C. Then, IAyne (iodoacetamide-alkyne) labeling was performed for 1 hour at room temperature. CuAAC was used by sequential addition of tris(2-carboxyethyl)phosphine (1 mM), tris[(1-benzyl-1H-1,2,3-triazol-4-yl)methyl]amine (34 μM), copper (II) sulfate (1 mM), and biotin-linker-azide where the linker was functionalized with a TEV protease recognition sequence along with an isotopically light or heavy valine for treatment of control or treated proteome, respectively. After click reactions, proteomes were precipitated by centrifugation at 6500×g, washed in ice-cold methanol, combined in a 1:1 control/treated ratio, washed again, then denatured and re-solubilized by heating in 1.2% SDS/PBS to 80° C. for 5 minutes. Insoluble components were precipitated by centrifugation at 6500×g and soluble proteome was diluted in 0.2% SDS/PBS (5 ml). Labeled proteins were bound to avidin-agarose beads (170 μl re-suspended beads/sample) while rotating overnight at 4° C. Bead-linked proteins were enriched by washing three times each in PBS and water, then re-suspended in urea/PBS (6 M), reduced in TCEP (1 mM), alkylated with iodoacetamide (18 mM), then washed and re-suspended in urea/PBS (2 M), and finally trypsinized overnight with 0.5 μg/μl sequencing grade trypsin. Tryptic peptides were eluted off. Beads were washed in PBS (3 times) and water (3 times), washed in TEV buffer solution (water, TEV buffer, 100 μM dithiothreitol), and re-suspended in buffer with Ac-TEV protease and then incubated overnight. Peptides were diluted in water, acidified with formic acid (1.2 M), and prepared for analysis.
# Peptides from all proteomic experiments were pressure-loaded onto an Agilent 600 series RP-HPLC system equipped with a capillary tubing (250 mm) packed with Aqua C18 reverse-phase resin (4 cm). The system was previously equilibrated with a gradient (0% B to 100% B over 10 minutes, 100% B for 5 minutes, then 0% B for 5 minutes; buffer A: 95:5 water:acetonitrile, 0.1% formic acid; buffer B: 80:20 acetonitrile:water, 0.1% formic acid). The samples were then attached using a MicroTee PEEK 360 μm fitting to a laser pulled column (13 cm) packed with Aqua C18 reverse-phase resin (10 cm) and strong-cation exchange resin (3 cm) for isoTOP-ABPP studies. Samples were analyzed using an Q Exactive Plus mass spectrometer using a 5-step Multidimensional Protein Identification Technology (MudPIT) program. […]
# [4] = test system: phosphorylated AKT (p-AKT); test: Western blot of phosphorylated AKT in 231MFP cells; format: cell-based
# Description: Antibodies to vinculin, phospho-Akt (Ser473), and Akt were obtained from a commercial source and proteomes were blotted per recommended manufacturer's' procedure. Cells were lysed in lysis buffer (containing the following: 20 mM Tris pH 7.5, 150 mM NaCl, 1 mM EDTA, 1 mM EGTA, 1% Triton X-100, 2.5 mM pyrophosphate, 50 mM NaF, 5 mM (3-glycero-phosphate, 1 mM Na3VO4, 50 nM calyculin A, and protease inhibitors). Lysate was incubated on a rotator at 4° C. for 30 min, and insoluble material was removed via centrifugation at a max speed for 10 minutes. Proteins were resolved by SDS/PAGE and transferred to nitrocellulose membranes using the iBlot system. Blots were blocked with 5% nonfat milk in Tris-buffered saline containing Tween 20 (TBST) solution for 1 hour at room temperature, washed in TBST, and probed with primary antibody diluted in a manufacturer recommended diluent overnight at 4° C. Following washes with TBST, the blots were incubated in the dark with secondary antibodies purchased from Rockland and used at 1:10 000 dilution in 5% nonfat milk in TBST at room temperature. Blots were visualized using an Odyssey Li-Cor scanner after additional washes.
# T1 sequence (P30153 whole entry): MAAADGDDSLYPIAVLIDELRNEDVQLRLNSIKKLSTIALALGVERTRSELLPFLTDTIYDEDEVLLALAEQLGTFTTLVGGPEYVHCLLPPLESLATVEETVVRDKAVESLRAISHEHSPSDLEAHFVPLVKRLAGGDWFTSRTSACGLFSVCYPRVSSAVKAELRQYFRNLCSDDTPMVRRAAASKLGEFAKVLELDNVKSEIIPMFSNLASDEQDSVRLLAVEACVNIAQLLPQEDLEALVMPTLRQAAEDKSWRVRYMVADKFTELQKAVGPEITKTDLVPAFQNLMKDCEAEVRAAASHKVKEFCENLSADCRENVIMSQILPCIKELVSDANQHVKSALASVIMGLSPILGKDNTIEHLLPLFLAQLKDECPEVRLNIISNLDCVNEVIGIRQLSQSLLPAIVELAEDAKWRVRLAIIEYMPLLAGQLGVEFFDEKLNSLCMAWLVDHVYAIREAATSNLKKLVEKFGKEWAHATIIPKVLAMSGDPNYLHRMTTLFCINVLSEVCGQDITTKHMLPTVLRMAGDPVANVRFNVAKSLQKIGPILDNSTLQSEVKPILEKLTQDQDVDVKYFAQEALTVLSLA
# T2 sequence (P30153 whole entry): as above
Structure (SMILES),anti-proliferative effect in siPPP2R1A versus siControl cells ([1]; 100 μM),IC50 [2],competition against IAyne labeling of pure human PPP2R1A ([2]; gel-based ABPP),"isotopically light to heavy ratio, C377 of PPP2R1A ([3]; 100 μM, 30 min pre-treatment)","phosphorylated AKT levels ([4]; 100 μM, 5 h)",improved potency towards PPP2R1A compared to DKM 2-90 ([2]; gel-based ABPP),anti-proliferative effect in siPPP2R1A versus siControl cells ([1]; 10 μM),"isotopically light to heavy ratio, C377 of PPP2R1A ([3]; 10 μM, 30 min pre-incubation, IAyne 100 μM)","phosphorylated AKT levels ([4]; 10 μM, 4 h)","phosphorylated AKT levels with cantharidin co-treatment ([4]; 10 μM, 4 h, co-treatment with cantharidin (10 μM, 4 h))"
"O=C(CCl)Nc1ccc2c(c1)OCCO2 [DKM 2-90, 2-Chloro-N-(2,3-dihydrobenzo[β][1,4]dioxin-6-yl)acetamide]",attenuation,10 µM,confirming the competition,quite selectively targeted C377 of PPP2R1A,inhibit AKT signaling,–,–,–,–,–
"O=C(CCl)N(Cc1ccccc1)c1ccc2c(c1)OCCO2 [JNS 1-40, N-benzyl-2-chloro-N-(2,3-dihydrobenzo[b][1,4]dioxin-6-yl)acetamide]",attenuated,0.63 µM,–,> 5,significantly reduced phosphorylated AKT levels,16 fold,–,–,–,–
"CC1=C(CO)C(=O)O[C@@H]([C@@H](C)[C@H]2CC[C@H]3[C@@H]4C[C@H]5O[C@]56[C@@H](O)C=CC(=O)[C@]6(C)[C@H]4CC[C@]23C)C1 [withaferin A, reference compound]",–,–,full competition,–,–,–,significantly attenuated the anti-proliferative effects,> 5,reduced phosphorylated AKT levels,rescued
